Test results taken from patent US10835533B2, “1 -((3S,4R)-4-(3-fluorophenyl)-1-(2-methoxyethyl)pyrrolidin-3-yl)-3-(4-methyl-3-(2-methylpyrimidin-5-yl)-1-phenyl-1H-pyrazol-5-yl)urea as a TrkA kinase inhibitor” (Array BioPharma Inc., priority 2014, dated 2020).

Assay: Liver microsomal clearance, human
Format: in vitro ADME
Settings: pH 7.4; Human liver microsomes; 1 mg/mL; 20 minutes
Method: The predicted hepatic clearance (CLh) value was calculated by scaling the in vitro half-life (t1/2) for stability of the compound in liver microsomes (1 mg/mL; 20 minutes) using the physical and physiological scaling factors used to predict intrinsic clearance (CLint) and hepatic clearance (CLhep) listed in Table 2 and employed in the following equations: […]
where D is the amount of cytochrome P450-related protein per mass of liver, W is the average mass of liver present per weight of animal, C is the liver microsomal concentration, and Q is the species-dependent hepatic blood flow.
A 100 mM potassium phosphate assay buffer solution (KPB) was prepared as follows. Both KH2PO4 and K2HPO4 were dissolved separately in reagent grade water resulting in final concentrations 100 mM. A 75:25 mixture v/v of K2HPO4:KH2PO4 was prepared and the pH of the solution was adjusted to 7.4 using diluted HCl or diluted NaOH solutions. Stock solutions of Compound 1, Compound 2 and Compound 3 were prepared at 10 mM (active compound) in DMSO. The stock solution was diluted immediately before use to 2.5 μM using the KPB solution to create the working standard. All test compounds were completely soluble in DMSO by visual inspection at room temperature. The NADPH-regenerating solution (NRS) was prepared on the day of analysis by diluting one volume of 17 mg/mL NADP^+ with one volume of 78 mg/mL glucose-6-phosphate (both prepared in KPB, pH 7.4) and 7.9 volumes of 20 mM MgCl2. The final concentrations of NADP^+ and glucose-6-phosphate were 1.7 mg/mL and 7.8 mg/mL, respectively. […]
All calculations were performed using BioAssay Enterprise. The mean peak area ratios were calculated by averaging the peak area ratios (n=2) of Compound 1, Compound 2, Compound 3, and the internal standard for each sample. Percent remaining was calculated by determining the ratio of the peak area ratio at each time point to the peak area ratio of the time-zero samples. The rate of loss of test compound (km) was determined by linear regression of −ln(f(t)) versus time. […] The t1/2 was determined dividing ln(2) by km. […]

| Structure (SMILES) | CLhep predicted at 1 μM [mL/min/kg] |
| --- | --- |
| COCCN1C[C@@H](NC(=O)Nc2c(C)c(-c3cnn(C)c3)nn2-c2ccccc2)[C@H](c2ccc(F)cc2)C1 [Compound 3, 1-(1′,4-dimethyl-1-phenyl-1H,1′H-[3,4′-bipyrazol]-5-yl)-3-((3S,4R)-4-(4-fluorophenyl)-1-(2-methoxyethyl)pyrrolidin-3-yl)urea] | 10 |
| COCCN1C[C@@H](NC(=O)Nc2c(C)c(-c3cnc(C)nc3)nn2-c2ccccc2)[C@H](c2ccc(F)c(F)c2)C1 [Compound 2, 1-((3S,4R)-4-(3,4-difluorophenyl)-1-(2-methoxyethyl)pyrrolidin-3-yl)-3-(4-methyl-3-(2-methylpyrimidin-5-yl)-1-phenyl-1H-pyrazol-5-yl)urea] | 14 |
| COCCN1C[C@@H](NC(=O)Nc2c(C)c(-c3cnc(C)nc3)nn2-c2ccccc2)[C@H](c2cccc(F)c2)C1 [Compound 1, 1-((3S,4R)-4-(3-fluorophenyl)-1-(2-methoxyethyl)pyrrolidin-3-yl)-3-(4-methyl-3-(2-methylpyrimidin-5-yl)-1-phenyl-1H-pyrazol-5-yl)urea] | 9.8 |
